{
  "source": "patent US10882860B2",
  "about": "“Treatment of osteoarthritis” (Samumed, LLC, priority 2015, dated 2021)",
  "key": {"[1]": {"test_system": "protease expression (MMP1, MMP3, MMP13)", "assay": "Inhibition of protease release (qRT-PCR, TNF-α + Oncostatin M stimulated chondrocytes)", "format": "cell-based, human", "conditions": "72 hours, FIGS. 19A-C", "description": "Human MSCs were plated in 10 cm dishes in chondrogenic induction medium (Lonza; DMEM, dexamethasone, ascorbate, insulin-transferrin-selenium [ITS supplement], gentamycin-amphotericin [GA-1000], sodium pyruvate, proline and L-glutamine) and treated with TGF-β3 (20 μg/mL) to induce chondrogenic differentiation. Cells from 4 dishes were pooled and re-plated in 24-well plates in Chondrogenic Induction Medium and treated with various concentrations of the compound of Formula (I). 4 hours later, MMP production was stimulated by adding TNF-α (20 μg/mL)+Oncostatin M (10 ng/mL) and cells were incubated at 37° C., 5% CO2 for 72 hours. Cells were then pelleted and washed, and total RNA was isolated and purified using RNeasy Plus Mini Kit (Qiagen). cDNA was synthesized from 1 μg of total RNA using QuantiTect Reverse Transcription kit (Qiagen). qRT-PCR was performed with QuantiTect SYBR Green PCR Kit (Qiagen) and gene-specific primers, using CFX384 thermal cycler (Biorad). Transcripts were quantitated by comparative Ct method, and normalized to endogenous controls, β-actin and GAPDH. Fold changes were normalized to unstimulated cells. […] FIG. 19A depicts MMP1 production. FIG. 19B depicts MMP3 production. FIG. 19C depicts MMP13 production."}, "[2]": {"test_system": "moderate-to-severe symptomatic knee OA subjects", "assay": "Phase 1 clinical study: biomarkers (COMP, βCTX, P1NP)", "format": "in vivo, human", "source_text": "The study was a first-in-human, multicenter, 24-week, placebo-controlled, single-dose, dose-escalation safety study of a Wnt pathway inhibitor in subjects suffering from moderate to severe symptomatic knee OA. The sample size was 20 subjects (randomized 4:1, 16 active: 4 placebo) per dosing cohort. Inclusion criteria included: Age, 50-75 years; Western Ontario and McMaster Universities Arthritis Index (WOMAC) Total score, 36-72 (out of 96); Kellgren-Lawrence grade, 2 or 3; and a willingness to omit pain medication for 24 hours prior to pain assessments. Exclusion criteria included: BMI>40; and treatment with IA steroids within 2 months or HA derivatives within 6 months prior to injection. A full list of the inclusion and exclusion criteria for this study can be found on clinicaltrials.gov (NCT02095548).\nThe dosing sequence included suspension compositions of either 0.03 mg, 0.07 mg, or 0.23 mg of the compound of Formula (I) (Form 1) per 2 mL injection in a vehicle containing 0.5% carboxymethylcellulose sodium and 0.05% polysorbate 80 in pH 7.4 phosphate buffered saline. The placebo contained only the diluent of 0.5% carboxymethylcellulose sodium and 0.05% polysorbate 80 in pH 7.4 phosphate buffered saline. The subjects were given a single, intra-articular injection in the target knee on Treatment Day 1 and participated in a follow-up period of 24 weeks.\nSafety, pharmacokinetics (PK), biomarker, and efficacy data were collected at baseline and during the 24-week follow-up period. Safety data included adverse events (AEs), concomitant medications, clinical laboratory sampling, medical history, vital signs, ECGs, hip bone density (DXA) analysis, qCT of the target knee, and evaluation of bone edema via MM. For PK data, samples were collected 0, 4, and 24 hours post dose, and at Weeks 4 and 12. Biomarker data included data for procollagen type 1 N-propeptide (P1NP), beta C-terminal telopeptide of type 1 collagen (βCTX), and cartilage oligomeric matrix protein (COMP). Efficacy data included measurements of WOMAC Total score, WOMAC Function and Pain subscores, pain VAS, Physician Global Assessment of Disease Activity, MM, and radiographs. Efficacy assessments were used to determine the percentage of OMERACT-OARSI “strict” responders. Exploratory analyses of efficacy outcomes were conducted using a baseline-adjusted repeated measures analysis of covariance (ANCOVA) in the Intention-to-Treat (ITT) population. The sponsor was unblinded after Week 12 for each cohort; site investigators remained blinded. All AEs reported in this study were […]. Investigator opinion regarding whether AEs were related to the compound of Formula (I) was also collected for informational purposes."}},
  "data": [
    {"compound": "CC(C)CC(=O)Nc1cncc(-c2ccc3[nH]nc(-c4nc5c(-c6cccc(F)c6)cncc5[nH]4)c3c2)c1", "note": "[compound of Formula (I)]", "values": [
      {"measurement": "protease expression (MMP1, MMP3, MMP13)", "setting": "[1]", "value": "dose-dependent inhibition"},
      {"measurement": "change in COMP", "setting": "[2]; 0.03 mg cohort", "value": "no significant changes"},
      {"measurement": "reduction in cartilage oligomeric matrix protein (COMP)", "setting": "[2]; 0.07 mg cohort, Week 12, P=0.001", "value": 130, "unit": "ng/mL"},
      {"measurement": "change in COMP", "setting": "[2]; 0.23 mg cohort", "value": "no significant changes"},
      {"measurement": "change in βCTX or P1NP", "setting": "[2]; any treatment group", "value": "no significant changes"}
    ]}
  ]
}
